Measured values from patent US9593305B2, “Differentiation of pluripotent stem cells” (Janssen Biotech, Inc., priority 2008, dated 2017).

Assays:
scid-beige mice = assay: Transplantation of differentiated cells under the kidney capsule, human C-peptide ELISA (Example 18); type: in vivo, mouse; settings: 8-weeks post-transplant; cells treated in step 1 as named (compounds with GDF-8)
Experimental: Five to six-week-old male scid-beige mice (C.B-Igh-1 b1 GbmsTac-Prkdc^scid-Lyst^bgN7) were purchased from Taconic Farms. Mice were housed in microisolator cages with free access to sterilized food and water. In preparation for surgery, mice were identified by ear tagging, their body weight was measured, and their blood glucose was determined using a hand held glucometer (LifeScan; One Touch). On the day of surgery, mice were anesthetized with a mixture of isolflurane and oxygen, and the surgical site was shaved with small animal clippers. Mice were dosed with 0.1 mg·kg Buprenex subcutaneously pre-operatively. The surgical site was prepared with successive washes of 70% isopropyl alcohol, 10% povidone-iodide, and 70% isopropyl alcohol, and a left lateral incision was made through the skin and muscle layers. […]
Following transplantation, mice were weighed once per week and blood glucose was measured twice per week. […] Human C-peptide levels were determined using the Mercodia/ALPCO Diagnotics Ultrasensitive C-peptide ELISA according to the manufacturer's instructions.
ELISA results for human C-peptide are shown in FIG. 23 for mice transplanted with cells from each of the respective treatment groups. No circulating human C-peptide was detected at four weeks post-transplant for any mice receiving cells from any of the treatment groups.

H1 p49C3 cells = assay: Differentiation on microcarrier beads, cell number and CXCR4 by flow cytometry (Example 22); type: cell-based, human; settings: three days
Experimental: H1 p49C3 cells were routinely grown on Cytodex3 beads (GE Healthcare Life Sciences, NJ) in a 125 ml spinner flask, according to the methods described in U.S. Patent Application No. 61/116,447. After seven days, cells and beads were transferred to a 6 well plate at a ratio of 30 cm^2 bead surface area per well, and the plate was placed on a rocking platform. Cells on beads in the positive control treatment well (designated AA/Wnt3a) were differentiated with addition of 100 ng/ml activin A (PeproTech; Cat #120-14) and 20 ng/ml Wnt3a (R&D Systems; Cat #1324-WN/CF) for two days followed by 100 ng/ml activin A and 8 ng/ml bFGF (PeproTech Inc.; Cat #: 100-18B) for one day in RPMI-1640 (Invitrogen; Cat #: 22400) with 2% Fatty Acid Free BSA (MP Biomedicals, Inc; Cat #152401) using volumes of 2 ml/well. Compound 34, at a final concentration of 2.5 nM was added to a negative control treatment well (designated CMP alone (JNJ alone)) in RPMI-1640 with 2% Fatty Acid Free BSA (2 ml/well) for three days in the absence of any other growth factor treatment. […]
At the conclusion of treatment and culture, cells were harvested from the beads, according to the methods described in U.S. Patent Application No. 61/116,447. The harvested cells were counted and analyzed by flow cytometry, according to the methods described above. […]

Row | Compound | mice with detectable C-peptide (scid-beige mice) | differentiation into CXCR4 positive cells (H1 p49C3 cells; Compound 34 alone, no growth factor, Cytodex3 beads) | CXCR4 expression, % of the cells, on average (H1 p49C3 cells; Compound 34 with the various growth factor combinations including 50 ng/ml GDF-8, Cytodex3 beads) [%]
1 | C=CCN1CC(=O)NCCCc2cncc(c2)-c2ncnc(n2)Nc2cccc(c2)C1 [Compound 40, 14-Prop-2-en-1-yl-3,5,7,14,17,23,27-heptaazatetracyclo[19.3.1.1˜2.6˜0.1˜8,12˜]heptacosa-1(25), 2(27), 3,5,8(26), 9,11,21,23-nonaen-16-one] | one of three mice |  | 
2 | O=C1CCN2CCN(CC2)Cc2cc(Cl)cc(c2)Nc2ncnc(n2)-c2cncc(c2)CCCN1 [Compound 34, 5-Chloro-1,8,10,12,16,22,26,32-octaazapentacyclo[24.2.2.1˜3.7˜0.1˜9,13˜0.1˜14.18˜]tritriaconta-3(33), 4,6,9(32), 10,12,14(31), 15,17-nonaen-23-one] |  | did not differentiate into CXCR4 positive cells | 50
